Measured values taken from the SangsterLogP compilation.

Compound	logP
CCOc1ccc(Cc2cnc(N)nc2N)cc1OCC	1.72
COc1ccc(Br)c(Cc2cnc(N)nc2N)c1	2
CCN(CC)c1cc(Cc2cnc(N)nc2N)ccc1OC	2.43
COc1cc(Cc2cnc(N)nc2N)ccc1OC1CCCC1	2.65
COc1ccc(Br)cc1Cc1cnc(N)nc1N	2.44
CCOc1cc(Cc2cnc(N)nc2N)c(Br)c(OCC)c1OCC	1.81
CCCOc1ccc(Cc2cnc(N)nc2N)cc1OC	2.02
COc1cc(Cc2cnc(N)nc2N)c(Br)cc1Br	3.17
CN(C)c1ccc(Cc2cnc(N)nc2N)cc1	1.82
COc1c(Br)c(Cc2cnc(N)nc2N)c(Br)c(OC)c1OC	1.73
CCOc1cc(Cc2cnc(N)nc2N)ccc1OC	1.2
COc1ccc(Cc2cnc(N)nc2N)cc1	1.34
COc1ccc(I)cc1Cc1cnc(N)nc1N	2.7
CCCOc1cc(Br)c(Cc2cnc(N)nc2N)cc1OC	2.84
CCOc1cc(Cc2cnc(N)nc2N)c(Br)cc1OC	1.86
CCOc1cc(Cc2cnc(N)nc2N)c(I)c(OCC)c1OCC	2.9
COc1ccc(Cc2cnc(N)nc2N)cc1N(C)C	1.68
CCCOc1cc(Cc2cnc(N)nc2N)c(Br)cc1OC	2.31
COc1cc(Br)c(Cc2cnc(N)nc2N)cc1OC	1.64
COc1cc(Cc2cnc(N)nc2N)c(Br)c(OC)c1OC	1.66
CCOc1cc(Br)c(Cc2cnc(N)nc2N)cc1OC	2.18
CCCOc1cc(Cc2cnc(N)nc2N)ccc1OC	1.88
COc1ccc(Cc2cnc(N)nc2N)cc1C(C)C	2.79
CCOc1cc(Cc2cnc(N)nc2N)cc(OCC)c1OCC	2.08

Second part, the compound after the results:

logP	Compound
2.88	COc1ccc(Cc2cnc(N)nc2N)cc1Nc1ccccc1
2.49	COc1cc(Cc2cnc(N)nc2N)ccc1Oc1ccccc1
0.76	COc1ccc(Cc2cnc(N)nc2N)cc1N
1.87	COc1cc(Cc2cnc(N)nc2N)ccc1Cl
1.75	COc1ccccc1Cc1cnc(N)nc1N
1.88	COc1ccc(Cc2cnc(N)nc2N)cc1Br
3.14	COc1cc(Cc2cnc(N)nc2N)ccc1C(C)C
2.09	COc1ccc(Cc2cnc(N)nc2N)cc1I
1.34	CCOc1ccc(Cc2cnc(N)nc2N)cc1OC
3.42	COc1cc(Cc2cnc(N)nc2N)ccc1Nc1ccccc1
2.12	COc1ccc(Cc2cnc(N)nc2N)cc1Oc1ccccc1
1.87	COc1cc(Cc2cnc(N)nc2N)ccc1N(C)C
1.08	COc1ccc(Cc2cnc(N)nc2N)cc1F
1.54	Nc1ncc(Cc2ccccc2)c(N)n1
0.49	COc1cc(Cc2cnc(N)nc2N)ccc1N
1.91	COc1ccc(Cc2cnc(N)nc2N)cc1C
